Laboratory results as given in US20170342026A1, “ISOPROPOXY-PHENYLGUANIDINE SERIES SALT AND APPLICATION THEREOF IN PREPARING GROWTH PROMOTERS FOR ANIMAL FEED” (GUANGZHOU INSIGHTER BIOTECHNOLOGY CO., LTD., priority 2015, published 2017).

Tests used:
Type in all cases: in vivo
broilers [1] = assay: Effects of the series of salts of isopropoxy-phenylguanidine on production performance of broilers; conditions: 50 ppm in feed, 30 days; for Average daily weight gain / Average feed conversion ratio / Survival rate (%): 1-day-old broilers; for effect on production performance compared with hydrochloride: broilers
Method: One thousand and five hundred (1500) 1-day-old broilers were divided into 15 groups and each group with 100 broilers. Different types of salts of isopropoxy-phenylguanidine were added to the same basic diets. The broilers were free feeding and drinking and continued feeding for 30 days, then to collect statistics of the production performance and the survival rate of broilers in each group.

broilers [2] = assay: Effects of different concentrations of isopropoxy-phenylguanidine methanesulfonate on production performance of broilers
Method: Eight hundred (800) broilers aged 1 day were divided into 8 groups and each group with 100 broilers. Different concentrations of isopropoxy-phenylguanidine methanesulfonate were added to the same basic diets. The broilers were free feeding and drinking and continued feeding for 30 days, then to collect statistics of the production performance and the survival rate of broilers in each group.

[3] = system: Duroc×Landrace×Large White piglets; assay: Effects of the salts of isopropoxy-phenylguanidine in a feed for pigs; conditions: 100 ppm in feed; for Average daily weight gain / Feed conversion ratio: piglets aged 28 days; for effect on production performance compared with hydrochloride: pigs, 28 days
Method: One hundred and twenty (120) Duroc×Landrace×Large White piglets aged 28 days with similar body weight were randomly divided into 6 groups, each with 20 pigs. Different types of salts of isopropoxy-phenylguanidine were added to the feeds respectively in accordance with Table 3. The pigs were free feeding and drinking during the test period of 28 days.

Cherry Valley ducks = assay: Effects of the salts of isopropoxy-phenylguanidine in a feed for ducks; conditions: 50 ppm in feed, 28 days; for Average daily weight gain / Feed conversion ratio: ducks aged 1 day; for effect on production performance compared with hydrochloride: ducks
Method: Six hundred (600) Cherry Valley ducks aged 1 day were randomly divided into 6 groups, each with 100 ducks. Different types of salts of isopropoxy-phenylguanidine were added to the feed according to Table 4. The ducks were free feeding and drinking during the test period of 28 days.

[4] = broilers, 5 ppm in feed, 30 days
[5] = broilers, 10 ppm in feed, 30 days
[6] = broilers, 20 ppm in feed, 30 days
[7] = broilers, 50 ppm in feed, 30 days
[8] = broilers, 100 ppm in feed, 30 days
[9] = broilers, 200 ppm in feed, 30 days
[10] = broilers, 500 ppm in feed, 30 days

SMILES: CC(C)Oc1ccc(C=NNC(=N)NN=Cc2ccc(OC(C)C)cc2)cc1.CS(=O)(=O)O [2,2′-bis[[4-(isopropoxy)phenyl]methylene]-diaminoguanidine methanesulfonate]
- Average daily weight gain (broilers [1]): 48.8 g
- Average feed conversion ratio (broilers [1]): 1.999
- Survival rate (%) (broilers [1]): 100%
- effect on production performance compared with hydrochloride (broilers [1]): better than hydrochloride
- Daily weight gain (broilers [2]; [4]): 42.3 g
- Feed conversion ratio (broilers [2]; [4]): 2.150
- Survival rate (%) (broilers [2]; [4]): 100%
- Daily weight gain (broilers [2]; [5]): 43.4 g
- Feed conversion ratio (broilers [2]; [5]): 2.138
- Survival rate (%) (broilers [2]; [5]): 100%
- Daily weight gain (broilers [2]; [6]): 44.5 g
- Feed conversion ratio (broilers [2]; [6]): 2.119
- Survival rate (%) (broilers [2]; [6]): 100%
- Daily weight gain (broilers [2]; [7]): 48.9 g
- Feed conversion ratio (broilers [2]; [7]): 2.087
- Survival rate (%) (broilers [2]; [7]): 100%
- Daily weight gain (broilers [2]; [8]): 49.6 g
- Feed conversion ratio (broilers [2]; [8]): 2.076
- Survival rate (%) (broilers [2]; [8]): 100%
- Daily weight gain (broilers [2]; [9]): 49.2 g
- Feed conversion ratio (broilers [2]; [9]): 2.071
- Survival rate (%) (broilers [2]; [9]): 100%
- Daily weight gain (broilers [2]; [10]): 49.5 g
- Feed conversion ratio (broilers [2]; [10]): 2.073
- Survival rate (%) (broilers [2]; [10]): 100%
- effect on production performance of broilers (broilers [2]; different concentrations (5-500 ppm) in feed, 30 days): significantly improve the production performance
- negative impacts on the production performance (broilers [2]; high concentrations in feed, broilers): no negative impacts
- Average daily weight gain [3]: 529 g
- Feed conversion ratio [3]: 1.713
- effect on production performance compared with hydrochloride [3]: better than hydrochloride
- Average daily weight gain (Cherry Valley ducks): 68.4 g
- Feed conversion ratio (Cherry Valley ducks): 1.831
- effect on production performance compared with hydrochloride (Cherry Valley ducks): better than hydrochloride

SMILES: CC(C)Oc1ccc(C=NNC(=N)NN=Cc2ccc(OC(C)C)cc2)cc1.O=C(O)CCC(=O)O [isopropoxy-phenylguanidine succinate, 2,2′-bis[[4-(isopropoxy)phenyl]methylene]-diaminoguanidine succinate]
- Average daily weight gain (broilers [1]): 43.6 g
- Average feed conversion ratio (broilers [1]): 2.143
- Survival rate (%) (broilers [1]): 100%

SMILES: CC(C)Oc1ccc(C=NNC(=N)NN=Cc2ccc(OC(C)C)cc2)cc1.O=C(O)C(O)C(O)C(=O)O [isopropoxy-phenylguanidine tartrate, 2,2′-bis[[4-(isopropoxy)phenyl]methylene]-diaminoguanidine tartrate]
- Average daily weight gain (broilers [1]): 43.9 g
- Average feed conversion ratio (broilers [1]): 2.131
- Survival rate (%) (broilers [1]): 98%

SMILES: CC(C)Oc1ccc(C=NNC(=N)NN=Cc2ccc(OC(C)C)cc2)cc1.O=C(O)c1ccccc1 [isopropoxy-phenylguanidine benzoate, 2,2′-bis[[4-(isopropoxy)phenyl]methylene]-diaminoguanidine benzoate]
- Average daily weight gain (broilers [1]): 44.7 g
- Average feed conversion ratio (broilers [1]): 2.126
- Survival rate (%) (broilers [1]): 100%

SMILES: CC(C)Oc1ccc(C=NNC(=N)NN=Cc2ccc(OC(C)C)cc2)cc1.O=C(O)CC(O)(CC(=O)O)C(=O)O [isopropoxy-phenylguanidine citrate, 2,2′-bis[[4-(isopropoxy)phenyl]methylene]-diaminoguanidine citrate]
- Average daily weight gain (broilers [1]): 44.5 g
- Average feed conversion ratio (broilers [1]): 2.125
- Survival rate (%) (broilers [1]): 100%
- Average daily weight gain [3]: 491 g
- Feed conversion ratio [3]: 1.803

SMILES: CC(C)Oc1ccc(C=NNC(=N)NN=Cc2ccc(OC(C)C)cc2)cc1.O=P(O)(O)O [isopropoxy-phenylguanidine phosphate, 2,2′-bis[[4-(isopropoxy)phenyl]methylene]-diaminoguanidine phosphate]
- Average daily weight gain (broilers [1]): 44.0 g
- Average feed conversion ratio (broilers [1]): 2.139
- Survival rate (%) (broilers [1]): 100%
- Average daily weight gain (Cherry Valley ducks): 61.2 g
- Feed conversion ratio (Cherry Valley ducks): 1.926

SMILES: CC(C)Oc1ccc(C=NNC(=N)NN=Cc2ccc(OC(C)C)cc2)cc1.O=C(O)/C=C/C(=O)O [isopropoxy-phenylguanidine fumarate, 2,2′-bis[[4-(isopropoxy)phenyl]methylene]-diaminoguanidine fumarate]
- Average daily weight gain (broilers [1]): 44.1 g
- Average feed conversion ratio (broilers [1]): 2.136
- Survival rate (%) (broilers [1]): 99%

SMILES: CC(C)Oc1ccc(C=NNC(=N)NN=Cc2ccc(OC(C)C)cc2)cc1.Cl [isopropoxy-phenylguanidine hydrochloride, 2,2′-bis[[4-(isopropoxy)phenyl]methylene]-diaminoguanidine hydrochloride, reference compound]
- Average daily weight gain (broilers [1]): 46.6 g
- Average feed conversion ratio (broilers [1]): 2.087
- Survival rate (%) (broilers [1]): 100%
- Average daily weight gain [3]: 512 g
- Feed conversion ratio [3]: 1.754
- Average daily weight gain (Cherry Valley ducks): 65.3 g
- Feed conversion ratio (Cherry Valley ducks): 1.874

SMILES: CC(C)Oc1ccc(C=NNC(=N)NN=Cc2ccc(OC(C)C)cc2)cc1.O=S(=O)(O)O [isopropoxy-phenylguanidine sulfate, 2,2′-bis[[4-(isopropoxy)phenyl]methylene]-diaminoguanidine sulfate]
- Average daily weight gain (broilers [1]): 43.7 g
- Average feed conversion ratio (broilers [1]): 2.131
- Survival rate (%) (broilers [1]): 100%

SMILES: CC(C)Oc1ccc(C=NNC(=N)NN=Cc2ccc(OC(C)C)cc2)cc1.O=S(=O)(O)CCO [2,2′-bis[[4-(isopropoxy)phenyl]methylene]-diaminoguanidine 2-hydroxyethylsulfonate]
- Average daily weight gain (broilers [1]): 49.1 g
- Average feed conversion ratio (broilers [1]): 1.987
- Survival rate (%) (broilers [1]): 100%
- effect on production performance compared with hydrochloride (broilers [1]): better than hydrochloride
- Average daily weight gain [3]: 537 g
- Feed conversion ratio [3]: 1.697
- effect on production performance compared with hydrochloride [3]: better than hydrochloride
- Average daily weight gain (Cherry Valley ducks): 67.9 g
- Feed conversion ratio (Cherry Valley ducks): 1.835
- effect on production performance compared with hydrochloride (Cherry Valley ducks): better than hydrochloride

SMILES: CC(C)Oc1ccc(C=NNC(=N)NN=Cc2ccc(OC(C)C)cc2)cc1.O=C(O)/C=C\C(=O)O [isopropoxy-phenylguanidine maleate, 2,2′-bis[[4-(isopropoxy)phenyl]methylene]-diaminoguanidine maleate]
- Average daily weight gain (broilers [1]): 44.1 g
- Average feed conversion ratio (broilers [1]): 2.137
- Survival rate (%) (broilers [1]): 100%

SMILES: CC(C)Oc1ccc(C=NNC(=N)NN=Cc2ccc(OC(C)C)cc2)cc1.CC(O)C(=O)O [isopropoxy-phenylguanidine lactate, 2,2′-bis[[4-(isopropoxy)phenyl]methylene]-diaminoguanidine DL-lactate]
- Average daily weight gain (broilers [1]): 47.9 g
- Average feed conversion ratio (broilers [1]): 2.006
- Survival rate (%) (broilers [1]): 100%
- effect on production performance compared with hydrochloride (broilers [1]): better than hydrochloride
- Average daily weight gain [3]: 535 g
- Feed conversion ratio [3]: 1.701
- effect on production performance compared with hydrochloride [3]: better than hydrochloride
- Average daily weight gain (Cherry Valley ducks): 67.8 g
- Feed conversion ratio (Cherry Valley ducks): 1.827
- effect on production performance compared with hydrochloride (Cherry Valley ducks): better than hydrochloride

SMILES: CC(=O)O.CC(C)Oc1ccc(C=NNC(=N)NN=Cc2ccc(OC(C)C)cc2)cc1 [isopropoxy-phenylguanidine acetate, 2,2′-bis[[4-(isopropoxy)phenyl]methylene]-diaminoguanidine acetate]
- Average daily weight gain (broilers [1]): 43.2 g
- Average feed conversion ratio (broilers [1]): 2.129
- Survival rate (%) (broilers [1]): 99%

SMILES: CC(C)Oc1ccc(C=NNC(=N)NN=Cc2ccc(OC(C)C)cc2)cc1.O=C(O)C(=O)O [isopropoxy-phenylguanidine oxalate, 2,2′-bis[[4-(isopropoxy)phenyl]methylene]-diaminoguanidine oxalate]
- Average daily weight gain (broilers [1]): 43.1 g
- Average feed conversion ratio (broilers [1]): 2.145
- Survival rate (%) (broilers [1]): 100%
